Source: patent publication US20120010159A1, “COMBINATION THERAPIES WITH COX-2 INHIBITORS AND TREPROSTINIL” (United Therapeutics Corporation, priority 2010, published 2012)

Legend:
[1] = administered by subcutaneous infusion; cited from earlier work
[2] = oral administration; cited from earlier work
[3] = bioavailability when delivered to the duodenum; type: in vivo; conditions: duodenal delivery
Source text: Accordingly, one embodiment of the present invention involves preferential delivery of the desired compound to the duodenum as well as pharmaceutical formulations that achieve duodenal delivery. Duodenal administration can be achieved by any means known in the art. In one of these embodiments, the present compounds can be formulated in an enteric-coated dosage form. Generally, enteric-coated dosage forms are usually coated with a polymer that is not soluble at low pH, but dissolves quickly when exposed to pH conditions of 3 or above. This delivery form takes advantage of the difference in pH between the stomach, which is about 1 to 2, and the duodenum, where the pH tends to be greater than 4.

bioavailability when delivered to the duodenum [3] | Structure (SMILES) | absolute bioavailability [1] | absolute oral bioavailability [2]
 | CCCCC[C@H](O)CC[C@@H]1[C@H]2Cc3cccc(OCC(=O)O)c3C[C@H]2C[C@H]1O [treprostinil sodium] | ~100% | 
increased bioavailability | CCCCC[C@H](O)CC[C@@H]1[C@H]2Cc3cccc(OCC(=O)O)c3C[C@H]2C[C@H]1O [treprostinil] |  | ~10%
